Our source for the IC50 values is patent US9242987B2, “Heterocyclyl pyrazolopyrimidine analogues as JAK inhibitors” (Cellzome Limited, priority 2009, dated 2016).

In general, IC50 refers to the concentration at which inhibition is half-maximal. Low values mean greater potency, high ones weaker potency.

A value given as a limit tells only on which side of the number the result lay.

In one assay the target is T1, JAK2 (Homo sapiens, UniProt O60674).
T1 construct: endogenous in cells; host or cells: Mixed Molt4/Ramos lysate (1:2)
As to the kind of experiment: Kinobeads assay, JAK2. The format is binding. The conditions noted are these: mixed Molt4/Ramos cell lysate, dot blot detection. The procedure, abridged: (§1)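 Lysate from Molt4 and Ramos cells combined 1:2 at 10 mg/mL total protein met test compound and an aminopyrido-pyrimidine affinity matrix for 3 h in the cold. Captured JAK2 and JAK3, after elution, were measured by specific-antibody dot blot on an infrared system; dose-response curves yielded IC50.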

The next assay has as its target T2, JAK3 (Homo sapiens, UniProt P52333).
T2 construct: endogenous in cells; host or cells: Mixed Molt4/Ramos lysate (1:2)
T2 sequence (P52333 1-1124): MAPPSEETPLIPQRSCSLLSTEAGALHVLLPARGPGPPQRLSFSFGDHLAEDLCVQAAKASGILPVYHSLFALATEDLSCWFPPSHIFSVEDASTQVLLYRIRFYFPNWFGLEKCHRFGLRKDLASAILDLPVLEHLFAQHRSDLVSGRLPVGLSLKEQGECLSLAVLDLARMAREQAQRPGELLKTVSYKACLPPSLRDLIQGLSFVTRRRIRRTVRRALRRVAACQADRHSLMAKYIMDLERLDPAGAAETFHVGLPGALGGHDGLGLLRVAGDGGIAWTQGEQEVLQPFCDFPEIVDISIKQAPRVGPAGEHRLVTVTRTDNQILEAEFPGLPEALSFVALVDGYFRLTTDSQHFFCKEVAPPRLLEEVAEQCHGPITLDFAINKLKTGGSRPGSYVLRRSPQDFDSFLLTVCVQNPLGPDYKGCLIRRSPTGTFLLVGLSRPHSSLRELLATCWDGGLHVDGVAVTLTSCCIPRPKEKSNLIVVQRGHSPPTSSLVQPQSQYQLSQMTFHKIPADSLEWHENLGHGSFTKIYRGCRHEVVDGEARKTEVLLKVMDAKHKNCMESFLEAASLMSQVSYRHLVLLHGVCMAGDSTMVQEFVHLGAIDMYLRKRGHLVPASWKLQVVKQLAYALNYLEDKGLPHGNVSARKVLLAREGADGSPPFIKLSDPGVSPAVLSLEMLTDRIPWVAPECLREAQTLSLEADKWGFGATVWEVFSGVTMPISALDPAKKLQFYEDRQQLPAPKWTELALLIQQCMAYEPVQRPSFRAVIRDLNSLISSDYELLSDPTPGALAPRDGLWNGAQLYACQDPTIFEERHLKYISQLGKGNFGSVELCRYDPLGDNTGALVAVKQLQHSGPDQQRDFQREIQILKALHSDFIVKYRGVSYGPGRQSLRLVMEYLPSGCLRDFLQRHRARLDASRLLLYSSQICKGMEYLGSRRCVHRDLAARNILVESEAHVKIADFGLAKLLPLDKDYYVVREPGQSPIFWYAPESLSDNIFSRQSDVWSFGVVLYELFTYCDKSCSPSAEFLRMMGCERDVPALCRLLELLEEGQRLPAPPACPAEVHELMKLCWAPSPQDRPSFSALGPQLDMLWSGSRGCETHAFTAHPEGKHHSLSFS
As to the kind of experiment: Kinobeads assay, JAK3. In kind it is binding. Conditions: mixed Molt4/Ramos cell lysate, dot blot detection. The procedure, abridged:
as §1

T1 sequence (O60674 whole entry): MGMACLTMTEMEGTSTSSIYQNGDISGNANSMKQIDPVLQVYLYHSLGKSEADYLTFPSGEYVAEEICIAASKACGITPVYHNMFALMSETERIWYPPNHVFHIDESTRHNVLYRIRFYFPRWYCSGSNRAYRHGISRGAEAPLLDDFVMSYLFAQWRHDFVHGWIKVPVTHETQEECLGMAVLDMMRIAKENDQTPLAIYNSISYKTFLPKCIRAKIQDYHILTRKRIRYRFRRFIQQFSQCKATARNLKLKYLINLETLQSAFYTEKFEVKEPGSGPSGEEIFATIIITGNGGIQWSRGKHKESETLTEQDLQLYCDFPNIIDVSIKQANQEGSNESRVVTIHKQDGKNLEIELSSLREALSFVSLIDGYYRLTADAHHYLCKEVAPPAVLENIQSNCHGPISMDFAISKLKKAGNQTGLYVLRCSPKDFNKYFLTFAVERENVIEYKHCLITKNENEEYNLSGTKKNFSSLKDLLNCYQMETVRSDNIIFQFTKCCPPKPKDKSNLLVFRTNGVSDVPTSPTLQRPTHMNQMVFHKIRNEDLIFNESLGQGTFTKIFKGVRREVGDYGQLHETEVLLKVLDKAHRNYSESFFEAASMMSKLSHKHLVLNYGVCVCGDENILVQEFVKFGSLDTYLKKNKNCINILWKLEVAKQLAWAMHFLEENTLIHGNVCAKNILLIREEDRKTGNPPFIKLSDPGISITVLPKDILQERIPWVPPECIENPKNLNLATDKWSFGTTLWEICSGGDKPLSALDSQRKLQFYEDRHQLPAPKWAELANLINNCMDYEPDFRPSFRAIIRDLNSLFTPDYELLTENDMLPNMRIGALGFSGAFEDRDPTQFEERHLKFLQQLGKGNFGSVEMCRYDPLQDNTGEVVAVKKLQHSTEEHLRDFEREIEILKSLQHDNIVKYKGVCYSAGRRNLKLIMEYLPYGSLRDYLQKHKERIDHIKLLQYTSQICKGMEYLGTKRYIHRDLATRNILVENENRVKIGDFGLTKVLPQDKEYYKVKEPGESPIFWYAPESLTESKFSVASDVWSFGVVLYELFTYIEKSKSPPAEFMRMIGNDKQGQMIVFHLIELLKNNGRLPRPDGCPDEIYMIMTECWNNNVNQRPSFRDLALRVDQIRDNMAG

As for `N#Cc1ccccc1Cn1ncc2cnc(Nc3cn[nH]c3)nc21` [Example 4, 2-((6-(1H-Pyrazol-4-ylamino)-1H-pyrazolo[3,4-d]pyrimidin-1-yl)methyl)benzonitrile], the values for the IC50 against JAK2 and at JAK3 were 100 to 1000 nM and < 100 nM, respectively.
